Among the data in ChEMBL document CHEMBL2331095, “Synthesis and biological activity of 5-chloro-N⁴-substituted phenyl-9H-pyrimido[4,5-b]indole-2,4-diamines as vascular endothelial growth factor receptor-2 inhibitors and antiangiogenic agents” (Bioorg Med Chem, 2013) are IC50 and Ratio IC50 values, retold here.

In assay [1] the target is Platelet-derived growth factor receptor beta (Homo sapiens, UniProt P09619). As to the kind of experiment: Inhibition of PDGFRbeta in human SF539 cells assessed as inhibition of […] tyrosine phosphorylation incubated for 60 mins prior to PDGF-BB-activation measured 10 mins by ELISA.
In the next assay the test system is A-431. The assay is described as follows: Cytotoxicity against human A431 cells incubated for 12 hrs followed by compound wash out measured 36 hrs by CYQUANT assay. In kind it is functional, cell-based.
Assay [2] addresses T1, Epidermal growth factor receptor (Homo sapiens, UniProt P00533). The class given is cell-based, A-431.
For assay [3], the target named is Vascular endothelial growth factor receptor 2 (Homo sapiens, UniProt P35968). The class given is cell-based, U-251.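 Further: human U251 cells, compound preincubated 60 min before VEGF stimulation, VEGF-induced VEGFR2 tyrosine phosphorylation measured by ELISA after 10 min, value is concentration inhibiting this phosphorylation.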
Assay [4] deals with T1, Epidermal growth factor receptor. As to the kind of experiment: Ratio of sunitinib IC50 to compound IC50 for EGFR in human A431 cells. The class given is cell-based. Conditions: A-431.

Chain of Vascular endothelial growth factor receptor 2 (P35968 whole entry): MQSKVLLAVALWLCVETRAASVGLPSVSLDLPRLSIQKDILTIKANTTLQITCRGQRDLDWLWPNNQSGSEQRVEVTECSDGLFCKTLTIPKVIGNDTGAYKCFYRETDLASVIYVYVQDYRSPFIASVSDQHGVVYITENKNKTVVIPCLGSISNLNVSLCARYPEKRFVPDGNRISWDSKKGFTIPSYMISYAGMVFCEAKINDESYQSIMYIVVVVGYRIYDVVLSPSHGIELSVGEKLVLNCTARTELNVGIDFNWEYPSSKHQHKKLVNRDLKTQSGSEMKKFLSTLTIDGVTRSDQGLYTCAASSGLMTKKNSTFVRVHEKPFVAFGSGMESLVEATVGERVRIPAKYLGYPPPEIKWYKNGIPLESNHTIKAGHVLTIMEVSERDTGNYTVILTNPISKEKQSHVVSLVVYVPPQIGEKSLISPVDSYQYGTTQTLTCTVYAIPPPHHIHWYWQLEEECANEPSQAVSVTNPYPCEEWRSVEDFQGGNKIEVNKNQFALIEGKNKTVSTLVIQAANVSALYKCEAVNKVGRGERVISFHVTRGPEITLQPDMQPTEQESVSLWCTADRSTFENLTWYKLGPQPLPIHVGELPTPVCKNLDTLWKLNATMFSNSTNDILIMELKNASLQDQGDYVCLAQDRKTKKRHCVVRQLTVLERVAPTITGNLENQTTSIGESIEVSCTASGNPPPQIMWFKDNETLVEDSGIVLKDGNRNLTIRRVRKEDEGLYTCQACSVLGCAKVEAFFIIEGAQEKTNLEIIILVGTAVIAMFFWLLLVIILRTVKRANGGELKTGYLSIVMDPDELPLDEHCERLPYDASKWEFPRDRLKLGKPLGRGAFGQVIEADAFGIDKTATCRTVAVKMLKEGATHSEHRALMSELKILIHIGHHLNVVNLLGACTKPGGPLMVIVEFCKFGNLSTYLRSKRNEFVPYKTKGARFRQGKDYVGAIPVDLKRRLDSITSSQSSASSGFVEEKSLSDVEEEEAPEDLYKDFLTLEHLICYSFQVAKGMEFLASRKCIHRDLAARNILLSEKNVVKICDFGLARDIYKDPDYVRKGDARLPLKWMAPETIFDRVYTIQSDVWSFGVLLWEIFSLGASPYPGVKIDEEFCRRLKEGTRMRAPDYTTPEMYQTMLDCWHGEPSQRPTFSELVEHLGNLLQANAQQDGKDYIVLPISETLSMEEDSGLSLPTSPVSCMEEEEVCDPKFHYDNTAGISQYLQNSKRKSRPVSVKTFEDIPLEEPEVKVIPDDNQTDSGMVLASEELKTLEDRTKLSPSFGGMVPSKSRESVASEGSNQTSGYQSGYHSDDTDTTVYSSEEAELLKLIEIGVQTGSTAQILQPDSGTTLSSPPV
T1 sequence (P00533 whole entry): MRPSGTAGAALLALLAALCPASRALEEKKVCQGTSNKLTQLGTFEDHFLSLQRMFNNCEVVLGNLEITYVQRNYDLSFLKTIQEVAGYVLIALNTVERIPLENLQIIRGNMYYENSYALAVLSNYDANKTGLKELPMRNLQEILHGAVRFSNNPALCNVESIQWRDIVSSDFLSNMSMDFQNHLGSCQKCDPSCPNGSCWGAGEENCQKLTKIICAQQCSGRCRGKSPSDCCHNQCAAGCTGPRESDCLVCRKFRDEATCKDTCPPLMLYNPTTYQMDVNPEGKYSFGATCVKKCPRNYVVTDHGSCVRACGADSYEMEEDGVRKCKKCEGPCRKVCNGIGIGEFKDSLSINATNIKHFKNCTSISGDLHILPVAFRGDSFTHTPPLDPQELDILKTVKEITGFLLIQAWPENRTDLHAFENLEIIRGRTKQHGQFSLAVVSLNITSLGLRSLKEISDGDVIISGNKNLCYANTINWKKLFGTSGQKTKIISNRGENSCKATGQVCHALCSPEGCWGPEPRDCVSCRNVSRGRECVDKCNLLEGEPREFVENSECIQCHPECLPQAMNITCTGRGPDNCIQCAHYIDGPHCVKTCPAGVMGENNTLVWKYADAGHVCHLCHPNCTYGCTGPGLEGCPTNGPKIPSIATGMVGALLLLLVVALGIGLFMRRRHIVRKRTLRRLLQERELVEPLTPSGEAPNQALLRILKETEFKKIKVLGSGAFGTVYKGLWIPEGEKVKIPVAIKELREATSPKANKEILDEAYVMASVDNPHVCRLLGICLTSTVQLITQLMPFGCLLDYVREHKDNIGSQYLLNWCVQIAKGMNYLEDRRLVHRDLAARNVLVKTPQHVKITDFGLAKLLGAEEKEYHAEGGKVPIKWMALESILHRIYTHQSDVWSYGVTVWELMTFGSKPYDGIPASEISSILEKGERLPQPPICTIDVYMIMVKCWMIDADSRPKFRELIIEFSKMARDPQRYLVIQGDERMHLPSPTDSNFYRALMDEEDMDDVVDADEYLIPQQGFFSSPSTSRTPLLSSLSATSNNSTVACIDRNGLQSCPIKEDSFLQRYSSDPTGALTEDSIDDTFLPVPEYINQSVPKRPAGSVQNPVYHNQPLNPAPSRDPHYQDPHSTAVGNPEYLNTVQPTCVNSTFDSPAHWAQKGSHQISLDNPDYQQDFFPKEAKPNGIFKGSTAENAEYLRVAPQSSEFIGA
Chain of Platelet-derived growth factor receptor beta (P09619 whole entry): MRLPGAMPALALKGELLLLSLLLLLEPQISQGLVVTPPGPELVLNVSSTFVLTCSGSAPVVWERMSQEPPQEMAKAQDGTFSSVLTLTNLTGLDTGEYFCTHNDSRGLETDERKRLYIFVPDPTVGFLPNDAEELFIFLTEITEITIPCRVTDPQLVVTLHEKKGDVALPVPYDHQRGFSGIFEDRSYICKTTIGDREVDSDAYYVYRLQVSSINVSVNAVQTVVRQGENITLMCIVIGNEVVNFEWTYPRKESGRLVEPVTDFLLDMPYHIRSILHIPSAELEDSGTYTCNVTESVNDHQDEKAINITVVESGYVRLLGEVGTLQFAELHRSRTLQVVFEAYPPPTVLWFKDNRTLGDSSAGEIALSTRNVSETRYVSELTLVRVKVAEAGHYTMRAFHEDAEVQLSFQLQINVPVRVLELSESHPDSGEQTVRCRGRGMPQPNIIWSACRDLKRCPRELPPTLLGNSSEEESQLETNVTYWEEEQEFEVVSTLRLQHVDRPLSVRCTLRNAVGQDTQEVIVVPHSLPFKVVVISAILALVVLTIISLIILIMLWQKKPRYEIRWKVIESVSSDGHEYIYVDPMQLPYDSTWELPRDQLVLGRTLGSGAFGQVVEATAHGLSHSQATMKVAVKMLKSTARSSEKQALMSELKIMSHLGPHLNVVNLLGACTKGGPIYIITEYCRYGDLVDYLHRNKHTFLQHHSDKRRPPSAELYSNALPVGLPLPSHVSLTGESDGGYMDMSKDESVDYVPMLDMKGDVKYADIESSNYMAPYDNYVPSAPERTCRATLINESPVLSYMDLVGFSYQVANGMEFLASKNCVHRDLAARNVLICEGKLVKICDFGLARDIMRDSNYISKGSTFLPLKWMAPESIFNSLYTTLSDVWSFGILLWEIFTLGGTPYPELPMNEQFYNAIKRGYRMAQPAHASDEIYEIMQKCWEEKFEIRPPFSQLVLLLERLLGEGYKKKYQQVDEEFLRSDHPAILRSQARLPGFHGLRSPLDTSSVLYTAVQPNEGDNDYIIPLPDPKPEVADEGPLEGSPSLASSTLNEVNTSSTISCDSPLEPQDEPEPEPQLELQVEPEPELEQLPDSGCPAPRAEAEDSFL

In general, IC50 refers to the concentration that inhibits the measured activity by half. Consider `CC(C)c1ccc(Nc2nc(NC(=O)C(C)(C)C)nc3[nH]c4cccc(Cl)c4c23)cc1`, for which the IC50 in assay [1] is more than 200 µM; in the assay with A-431, more than 250 µM; in assay [2], 39.2 µM; in assay [3] it was 47.8 µM.
Take `CC(C)(C)C(=O)Nc1nc(Nc2ccccc2)c2c(n1)[nH]c1cccc(Cl)c12`: the results for the IC50 in assay [1], in assay [2] and in assay [3] were 70.6 µM, 115 µM and 192 µM, respectively.
Take `Nc1nc(Nc2ccc(Cl)cc2F)c2c(n1)[nH]c1cccc(Cl)c12`: in assay [1], the IC50 is more than 200 µM.
`COc1cccc(Nc2nc(NC(=O)C(C)(C)C)nc3[nH]c4cccc(Cl)c4c23)c1`: the concentration for half-maximal inhibition (IC50) in assay [1] was 196 µM; with A-431, more than 250 µM; in assay [2], 130 µM; in assay [3], 41 µM.
With `Nc1nc(Nc2ccccc2)c2c(n1)[nH]c1cccc(Cl)c12`, the half-inhibitory concentration (IC50) is more than 200 µM in assay [1], 193 µM in the assay on A-431, more than 200 µM in assay [2] and 124 µM in assay [3].
Consider `CC(C)c1ccc(Nc2nc(N)nc3[nH]c4cccc(Cl)c4c23)cc1`, for which the IC50 in assay [1] is more than 200 µM; in assay [3] it was 30.3 µM.
On to `CC(C)(C)C(=O)Nc1nc(Nc2ccc(Cl)cc2)c2c(n1)[nH]c1cccc(Cl)c12`, for which the concentration for half-maximal inhibition (IC50) in assay [1] was more than 200 µM; in assay [2], 58.7 µM; in assay [3], 21.3 µM.
In the case of `CC(C)(C)C(=O)Nc1nc(Nc2cccc(F)c2)c2c(n1)[nH]c1cccc(Cl)c12`, the IC50 in assay [1] was more than 200 µM; in the assay with A-431 it was more than 250 µM; in assay [2], 30.8 µM; in assay [3] it was 31.2 µM. Moreover, the Ratio IC50 in assay [4] turned out to be 5.5.
On to `Nc1nc(Nc2cccc(F)c2)c2c(n1)[nH]c1cccc(Cl)c12`, for which the IC50 was 172 µM in assay [1], more than 200 µM in assay [2] and 86.1 µM in assay [3].
Consider `Nc1nc(Nc2ccc(Cl)cc2)c2c(n1)[nH]c1cccc(Cl)c12`, for which the IC50 in assay [1] was found to be 196 µM; in assay [2] it was 63.6 µM; in assay [3], 13.2 µM.
As for `COc1cccc(Nc2nc(N)nc3[nH]c4cccc(Cl)c4c23)c1`, the IC50 in assay [1] was determined as 50.5 µM; in assay [2] it was 82.9 µM; in assay [3], 70.1 µM. In assay [4], the Ratio IC50 turned out to be 2.1.
With `CC(C)(C)C(=O)Nc1nc(Nc2ccc(Cl)cc2F)c2c(n1)[nH]c1cccc(Cl)c12`, the IC50 in assay [1] is 171 µM; in the assay on A-431, more than 250 µM; in assay [2], more than 200 µM; in assay [3], 89.1 µM.
